The record followed here is patent US20230165835A1, “METHODS OF TREATING ACUTE LUNG INJURY USING EBSELEN” (SOUND PHARMACEUTICALS INC., priority 2020, published 2023).

The test system of one data set is Vero E6 cells. The data set is described as follows: Cytotoxicity / cell viability in Vero E6 cells. The class given is cell-based. Particulars: ebselen: at ranges slightly higher than EC50.
Data set [1] deals with SARS-CoV-2. The data set is described as follows: Reduction of SARS-CoV-2 viral load in Vero E6 cells (image based assay of Jin et al.). The class given is cell-based. Particulars: Severe acute respiratory syndrome coronavirus 2, Vero C1008, read-out: EC50, reduction in viral load in Vero E6 cells, SARS-CoV-2; ebselen 100 nM to 1000 μM in DMSO or EtOH, remdesivir 1 nM to 10 μM.

The test system of data set [2] is SARS-CoV-2. The data set is described as follows: Hamster model of SARS-CoV-2 disease transmission and progression, viral load (PFU). The format is in vivo, Golden Syrian Hamsters. The note with it: 15 mg/kg. The method, then:
24 hours prior to nasal inoculation with SARS-CoV-2, Golden Syrian Hamsters were dosed with ebselen, saline and remdesivir at 15 mg/kg. Samples were taken from nares (PFU/swab) on days 1, 2 and 3, and from the nasal turbinates and cranial & caudal lung tissue (PFU/100 mg) on day 7.

For data set [3] the following is noted: human, in vivo, iv.

In the case of `CCC(CC)COC(=O)[C@H](C)N[P@](=O)(OC[C@H]1O[C@@](C#N)(c2ccc3c(N)ncnn23)[C@H](O)[C@@H]1O)Oc1ccccc1` [remdesivir], in the data set on Vero E6 cells, the “effect on cell viability” value was “no effect on cell viability”. For the same compound, the EC50 in the data set on SARS-CoV-2 [1] was 7 µM. In the data set with SARS-CoV-2 [2] (24 hours prior to nasal inoculation, saline 2.7E+04), the “PFU/swab (nares) Day 1” value came out at 1.1E+04 PFU/swab. Further, the “PFU/swab (nares) Day 3” value with SARS-CoV-2 [2] (24 hours prior to nasal inoculation, saline 5.5E+02) is reported as 3.8E+03 PFU/swab. For the same compound, the “PFU/swab (nares) Day 2” value in the data set on SARS-CoV-2 [2] (24 hours prior to nasal inoculation, saline 7.5E+03) is given as 3.1E+03 PFU/swab. Further, the “PFU/100 mg Cranial lung” value with SARS-CoV-2 [2] (day 7, saline 4.9E+06) worked out at 4.4E+06 PFU/100 mg. Also, in the data set with SARS-CoV-2 [2] (day 7, saline 5.5E+07), the “PFU/100 mg Turbinates” value was determined as 4.0E+02 PFU/100 mg. The “PFU/100 mg Caudal lung” value in the data set with SARS-CoV-2 [2] (day 7, saline 6.1E+06) is listed as 1.2E+07 PFU/100 mg.

For the compound `NC[C@H]1O[C@H](O[C@H]2[C@H](O)[C@@H](O[C@H]3O[C@H](CO)[C@@H](O)[C@H](N)[C@H]3O)[C@H](N)C[C@@H]2N)[C@H](N)C[C@@H]1O` [tobramycin], in data set [3] (4 weeks), the “% Responders (Bilateral), Conv + SRO” value is given as 33%; the “% Responders (Bilateral), Conventional” value is recorded as 0%; the “% Responders (Bilateral), DPOAE” value was determined as 40%; the “% Responders (Bilateral), SRO” value was found to be 33%. Moreover, in data set [3] (4 weeks), the “% Responders (Bilateral), WINT” value is recorded as 7%; the “% Responders (Unilateral), Conv + SRO” value is 60%; the “% Responders (Unilateral), Conventional” value worked out at 27%; the “% Responders (Unilateral), DPOAE” value is 40%. In addition, in data set [3] (4 weeks), the “% Responders (Unilateral), SRO” value stood at 53%; the “% Responders (Unilateral), WINT” value was determined as 33%; the “% Responders, Conv + SRO” value was found to be 93%; the “% Responders, DPOAE” value is listed as 80%. In addition, in data set [3] (4 weeks), the “% Responders, SRO” value was determined as 87%; the “% Responders, TFI” value worked out at 8%; the “% Responders, TL” value is given as 15%; the “% Responders, VSS” value was 8%. Besides, the “% Responders, WINT” value in data set [3] (4 weeks) is given as 40%. Also, in data set [3] (4 weeks post-treatment), the “% Responders, Conventional” value stood at 27%.
